Data reported in ChEMBL document CHEMBL5291721, “A preclinical secondary pharmacology resource illuminates target-adverse drug reaction associations of marketed drugs” (Nat Commun, 2023).

Legend:
[1] = molecular target: T1, 5-hydroxytryptamine receptor 1A (Homo sapiens, UniProt P08908); type: functional, cell-based
T1 sequence (P08908 whole entry): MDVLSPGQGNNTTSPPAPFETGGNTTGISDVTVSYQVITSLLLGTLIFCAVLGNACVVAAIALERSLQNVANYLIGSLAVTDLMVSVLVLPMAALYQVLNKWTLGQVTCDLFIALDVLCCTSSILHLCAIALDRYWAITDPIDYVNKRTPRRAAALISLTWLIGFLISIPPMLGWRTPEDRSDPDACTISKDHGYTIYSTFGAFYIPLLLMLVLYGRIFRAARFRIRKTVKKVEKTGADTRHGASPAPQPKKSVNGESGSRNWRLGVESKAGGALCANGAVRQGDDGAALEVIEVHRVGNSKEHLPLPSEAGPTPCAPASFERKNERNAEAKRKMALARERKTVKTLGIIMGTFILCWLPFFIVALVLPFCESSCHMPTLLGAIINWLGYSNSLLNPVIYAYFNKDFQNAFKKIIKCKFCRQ

[2] = molecular target: Melanocortin receptor 4 (Homo sapiens, UniProt P32245)
Melanocortin receptor 4, sequence (P32245 whole entry): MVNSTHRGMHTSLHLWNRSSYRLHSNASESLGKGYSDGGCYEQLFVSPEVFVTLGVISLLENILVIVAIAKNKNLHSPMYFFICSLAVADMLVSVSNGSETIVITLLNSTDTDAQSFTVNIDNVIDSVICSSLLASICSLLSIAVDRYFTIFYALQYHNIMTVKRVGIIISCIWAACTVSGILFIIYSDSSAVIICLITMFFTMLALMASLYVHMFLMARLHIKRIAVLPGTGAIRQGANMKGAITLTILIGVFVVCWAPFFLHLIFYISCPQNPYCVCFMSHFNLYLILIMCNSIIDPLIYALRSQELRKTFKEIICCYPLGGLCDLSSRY

[3] = molecular target: D(1A) dopamine receptor (Homo sapiens, UniProt P21728); type: functional, cell-based
D(1A) dopamine receptor, sequence (P21728 whole entry): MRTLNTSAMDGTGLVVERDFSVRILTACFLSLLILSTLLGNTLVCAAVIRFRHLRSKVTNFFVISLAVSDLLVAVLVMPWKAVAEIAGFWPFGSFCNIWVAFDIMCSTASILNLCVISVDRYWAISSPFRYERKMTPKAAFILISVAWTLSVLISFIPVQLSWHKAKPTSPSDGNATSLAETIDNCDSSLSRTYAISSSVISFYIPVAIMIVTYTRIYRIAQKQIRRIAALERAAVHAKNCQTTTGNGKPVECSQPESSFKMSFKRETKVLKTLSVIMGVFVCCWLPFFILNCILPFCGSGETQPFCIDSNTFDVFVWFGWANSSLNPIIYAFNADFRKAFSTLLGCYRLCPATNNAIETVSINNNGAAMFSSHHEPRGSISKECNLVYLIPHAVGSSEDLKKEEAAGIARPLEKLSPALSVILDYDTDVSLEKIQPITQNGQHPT

[4] = molecular target: Cannabinoid receptor 1 (Homo sapiens, UniProt P21554); type: functional, cell-based
Cannabinoid receptor 1, sequence (P21554 whole entry): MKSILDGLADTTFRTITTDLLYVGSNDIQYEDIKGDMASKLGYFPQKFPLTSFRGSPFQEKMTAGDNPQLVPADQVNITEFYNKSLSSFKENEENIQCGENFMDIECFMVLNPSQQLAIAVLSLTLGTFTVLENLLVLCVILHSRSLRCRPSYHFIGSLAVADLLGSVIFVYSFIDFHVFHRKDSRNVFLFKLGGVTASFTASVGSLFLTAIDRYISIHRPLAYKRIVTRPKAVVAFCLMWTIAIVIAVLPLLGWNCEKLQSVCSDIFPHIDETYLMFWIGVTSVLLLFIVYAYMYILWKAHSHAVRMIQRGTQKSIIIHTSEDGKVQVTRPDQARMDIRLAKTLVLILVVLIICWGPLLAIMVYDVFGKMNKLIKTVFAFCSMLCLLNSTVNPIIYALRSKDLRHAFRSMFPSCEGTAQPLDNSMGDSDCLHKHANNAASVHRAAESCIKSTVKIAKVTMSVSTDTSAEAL

[5] = molecular target: T2, Cholecystokinin receptor type A (Homo sapiens, UniProt P32238)
T2 sequence (P32238 whole entry): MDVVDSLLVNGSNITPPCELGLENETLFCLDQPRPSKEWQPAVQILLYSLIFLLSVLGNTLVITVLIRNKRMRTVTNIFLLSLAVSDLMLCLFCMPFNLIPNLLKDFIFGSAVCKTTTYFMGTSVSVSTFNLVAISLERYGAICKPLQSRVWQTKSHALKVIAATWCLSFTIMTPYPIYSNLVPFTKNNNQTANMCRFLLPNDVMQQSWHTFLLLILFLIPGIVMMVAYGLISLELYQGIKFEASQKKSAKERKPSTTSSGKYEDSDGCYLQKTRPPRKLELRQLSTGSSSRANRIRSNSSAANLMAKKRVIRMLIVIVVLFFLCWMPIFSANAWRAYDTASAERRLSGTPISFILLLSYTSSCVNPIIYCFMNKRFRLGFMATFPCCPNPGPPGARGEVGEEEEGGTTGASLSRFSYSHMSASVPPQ

[6] = molecular target: T3, Alpha-2C adrenergic receptor (Homo sapiens, UniProt P18825); type: functional
T3 sequence (P18825 whole entry): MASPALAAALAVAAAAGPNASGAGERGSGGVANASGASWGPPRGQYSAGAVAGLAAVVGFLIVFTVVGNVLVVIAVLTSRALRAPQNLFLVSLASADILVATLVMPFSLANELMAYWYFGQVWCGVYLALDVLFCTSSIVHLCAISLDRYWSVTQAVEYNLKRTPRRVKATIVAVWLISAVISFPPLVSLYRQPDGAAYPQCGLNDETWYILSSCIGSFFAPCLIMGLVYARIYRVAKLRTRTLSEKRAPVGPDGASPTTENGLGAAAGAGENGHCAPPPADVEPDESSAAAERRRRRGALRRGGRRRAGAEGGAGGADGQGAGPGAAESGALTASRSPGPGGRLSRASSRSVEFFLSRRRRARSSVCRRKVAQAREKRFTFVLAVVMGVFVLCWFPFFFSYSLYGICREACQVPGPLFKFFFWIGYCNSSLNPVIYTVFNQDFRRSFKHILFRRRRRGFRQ

[7] = molecular target: T4, Neuropeptide Y receptor type 1 (Homo sapiens, UniProt P25929); conditions: read-out: AC50
T4 sequence (P25929 whole entry): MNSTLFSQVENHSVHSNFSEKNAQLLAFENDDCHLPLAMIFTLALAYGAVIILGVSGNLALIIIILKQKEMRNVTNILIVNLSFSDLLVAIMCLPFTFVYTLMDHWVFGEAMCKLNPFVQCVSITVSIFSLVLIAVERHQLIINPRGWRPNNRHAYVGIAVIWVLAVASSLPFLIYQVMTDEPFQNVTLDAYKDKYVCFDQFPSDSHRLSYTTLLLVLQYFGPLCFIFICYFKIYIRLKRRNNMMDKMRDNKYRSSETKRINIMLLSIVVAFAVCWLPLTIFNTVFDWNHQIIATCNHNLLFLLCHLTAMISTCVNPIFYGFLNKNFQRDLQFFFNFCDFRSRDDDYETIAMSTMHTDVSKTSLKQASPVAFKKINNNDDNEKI

[8] = molecular target: T5, Alpha-2A adrenergic receptor (Homo sapiens, UniProt P08913); type: functional, cell-based
T5 sequence (P08913 whole entry): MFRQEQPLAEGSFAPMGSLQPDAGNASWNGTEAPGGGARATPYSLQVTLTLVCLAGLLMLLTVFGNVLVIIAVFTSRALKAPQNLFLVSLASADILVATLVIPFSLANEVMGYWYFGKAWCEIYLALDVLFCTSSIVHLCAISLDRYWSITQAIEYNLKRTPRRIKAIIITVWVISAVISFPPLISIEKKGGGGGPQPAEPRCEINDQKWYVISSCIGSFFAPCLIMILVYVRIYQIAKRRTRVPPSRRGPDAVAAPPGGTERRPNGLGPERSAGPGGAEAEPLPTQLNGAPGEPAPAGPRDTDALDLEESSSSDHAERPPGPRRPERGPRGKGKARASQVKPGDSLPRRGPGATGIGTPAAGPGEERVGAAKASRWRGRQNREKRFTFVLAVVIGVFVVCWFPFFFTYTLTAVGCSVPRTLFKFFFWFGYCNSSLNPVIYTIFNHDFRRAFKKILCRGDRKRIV

[9] = molecular target: T6, B2 bradykinin receptor (Homo sapiens, UniProt P30411)
T6 sequence (P30411 whole entry): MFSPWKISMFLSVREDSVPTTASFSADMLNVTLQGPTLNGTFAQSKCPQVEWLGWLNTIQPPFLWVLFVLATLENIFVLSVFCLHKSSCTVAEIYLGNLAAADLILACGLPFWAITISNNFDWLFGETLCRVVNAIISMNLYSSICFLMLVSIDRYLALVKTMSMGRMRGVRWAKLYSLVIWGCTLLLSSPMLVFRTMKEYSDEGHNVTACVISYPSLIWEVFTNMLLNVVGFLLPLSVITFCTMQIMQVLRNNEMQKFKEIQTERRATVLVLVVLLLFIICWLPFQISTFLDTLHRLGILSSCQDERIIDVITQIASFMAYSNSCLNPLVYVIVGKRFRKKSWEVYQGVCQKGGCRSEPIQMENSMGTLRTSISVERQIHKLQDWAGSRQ
Further: assay procedure not described here.

Row | Compound | AC50 [1] [µM] | AC50 [2] [µM] | AC50 [3] [µM] | AC50 [4] [µM] | AC50 [5] [µM] | AC50 [6] [µM] | AC50 [7] [µM] | AC50 [8] [µM] | AC50 [9] [µM]
1 | C[C@H]1c2cccc(O)c2C(=O)C2=C(O)[C@]3(O)C(=O)C(C(N)=O)=C(O)[C@@H](N(C)C)[C@@H]3[C@@H](O)[C@@H]21 [DOXYCYCLINE] | > 10 | > 30 | > 10 | > 30 | > 30 | > 10 | > 30 | > 10 | > 30
2 | COc1ccccc1OCCNCC(O)COc1cccc2[nH]c3ccccc3c12 (centres undefined) [CARVEDILOL] | 0.04 | 29.9 | > 10 | > 30 | > 30 | 0.061 | 25.3 | 3.09 | > 30
3 | C=CC[C@@H]1/C=C(\C)C[C@H](C)C[C@H](OC)[C@H]2O[C@@](O)(C(=O)C(=O)N3CCCC[C@H]3C(=O)O[C@H](/C(C)=C/[C@@H]3CC[C@@H](O)[C@H](OC)C3)[C@H](C)[C@@H](O)CC1=O)[C@H](C)C[C@@H]2OC [TACROLIMUS ANHYDROUS] | > 10 | > 30 | > 30 | > 30 | > 30 | > 30 | > 30 | > 10 | > 30
4 | N[C@@H](CC(=O)N1CCn2c(nnc2C(F)(F)F)C1)Cc1cc(F)c(F)cc1F [SITAGLIPTIN] | > 30 | > 10 | > 30 | > 30 | > 30 | > 30 | > 10 | > 30 | > 10
5 | C=C[C@H]1C[N@@]2CC[C@H]1C[C@@H]2[C@@H](O)c1ccnc2ccc(OC)cc12 [QUINIDINE] | > 30 | > 30 | > 10 | > 30 | > 30 | 18 | > 30 | 12 | > 30
6 | COc1ccccc1Oc1c(NS(=O)(=O)c2ccc(C(C)(C)C)cc2)nc(-c2ncccn2)nc1OCCO [BOSENTAN] | > 10 | > 30 | > 10 | > 30 | > 30 | > 10 | > 30 | > 10 | > 30
